Assay results taken from patent US6852750B2, “Benzenedicarboxylic acid derivatives” (Guilford Pharmaceuticals, Inc., priority 2000, dated 2005).

Assays:
cortical cell cultures = experiment: In vitro assay on ischemia (cortical cell cultures, potassium cyanide and 2-deoxyglucose); format: cell-based; settings: 1 h, read-out: EC50 (neuroprotective effect)
Method: In Vitro Assay on Ischemia
To examine the in vitro effect of the compounds of formula I on ischemia, cortical cell cultures were treated with various compounds of formula I during an ischemic insult utilizing potassium cyanide and 2-deoxyglucose, and for one hour thereafter (for experimental details, see Vomov et al., J. Neurochem., Vol. 65, No. 4, pp. 1681-1691 (1995)).

STZ-diabetic rats = experiment: In vivo assay on diabetic neuropathy: motor and sensory nerve conduction velocity in STZ-diabetic rats; settings: vs diabetic controls; for sensory nerve conduction velocity / motor nerve conduction velocity: 10 mg/kg daily; for sensory nerve conduction velocity: significant after 8 weeks (Compound A) or 12 weeks (Compound D); for motor nerve conduction velocity: significant after 12 weeks
Method: In Vivo Assay of NAALADase Inhibitors on Diabetic Neuropathy
Motor and sensory nerve conduction velocity was also measured in STZ-diabetic animals after 4, 8 and 12 weeks of treatment. For detailed method, see De Koning et al., Peptides 1987 May-Jun. 1987; 8(3):415-22. Briefly, stimulating needle electrodes were inserted close to the sciatic and tibial nerves with recording electrodes being placed subcutaneously over the distal foot muscles, in anesthetized rats.

BB/W diabetic rats [1] = experiment: Withdrawal latency in BB/W diabetic rats (Hargreaves); format: in vivo; settings: 10 mg/kg i.p. daily, vs diabetic vehicle-treated rats, from 4 weeks through six months, FIG. 17
Description: (§1) Male BB/W rats (BRI, Mass) spontaneously develop a cell mediated autoimmune destruction of pancreatic B cells, resulting in onset of insulin-dependent (Type I) diabetes (Awata and Guberski et al., Endocrinology 1995 December; 136(12):5731-5). […] This renders them valuable for experimental trials of new compounds for future treatments of this major disorder. In the present study, Compound D and Compound A were examined for their ability to alter the progression of diabetic neuropathy. The rats received daily injection of Compound D or Compound A (10 mg/kg i.p.) or vehicle, starting at the onset of diabetes (hyperglycemia) and up to 6 months thereafter. Another group of non-diabetic rats also receiving vehicle were tested. All animals were continuously monitored for body weight, urine volume, blood sugar and glycated haemoglobin. In the first month of the study, all animals were tested for thermal nociception in a Hargreaves apparatus, weekly. After the first month this was done biweekly and then monthly. The testing consists of directing an infrared heat source onto the dorsal surface of the rat hindpaw and noting the time taken for the animal to remove its paw (for detailed method, see Hargreaves et al., J. Biol. Chem. 1988 Dec. 25; 263(36):19392-7). Each animal was tested 8 times and the mean withdrawal latency noted.

BB/W diabetic rats [2] = experiment: Nerve conduction velocity in BB/W diabetic rats; format: in vivo; settings: 10 mg/kg daily, vs diabetic vehicle controls, from 8 weeks to six months, FIG. 18
Description: as §1, with “The testing consists of directing an infrared heat source onto the dorsal surface of the rat hindpaw and noting the time taken for the animal to remove its paw (for detailed method, see Hargreaves et al., J. Biol. Chem. 1988 Dec. 25; 263(36):19392-7). Each animal was tested 8 times and the mean withdrawal latency noted.” left out
Nerve conduction velocity was also measured every two weeks through the first eight weeks of treatment and every month thereafter through to the six months of treatment. […]

[3] = tested on: STZ-induced diabetic rats; experiment: In vivo assay on neuropathic pain, STZ-diabetic rats (Hargreaves thermal nociception); parameters: species or system Sprague-Dawley rats; settings: 10 mg/kg i.p. daily, FIGS. 13A and 13B
Method: In Vivo Assay of NAALADase Inhibitors on Neuropathic Pain
Male Sprague-Dawley rats (200-225 g) were rendered diabetic by intravenous administration of streptozotocin (“STZ”, 70 mg/kg in phosphate buffered saline). Diabetic animals were divided into five groups: one group receiving Compound A (10 mg/kg or 1 mg/kg), Compound D (10 mg/kg or 1 mg/kg) or vehicle. Another group of animals (non-STZ treated) served as non-diabetic controls. Drug/vehicle treatment was started in diabetic animals 45 days post-STZ administration. STZ-induced diabetic rats were tested for sensitivity to a heat source as soon as blood glucose levels rose to 320 mg/dl or above (30 days post STZ). The rats were then acclimated to the Hargreaves apparatus and thermal nociception was monitored using an infrared heat source directed into the dorsal surface of the hindpaw, and the time taken for the animal to remove its paw noted to the nearest 0.1 seconds (for detailed method, see Hargreaves et al., J. Biol. Chem. (1988) 263(36):19392-7). The intensity of the beam source was adjusted such that the mean latency for control animals (non-STZ treated) was approximately 10 seconds. Each animal was tested 8 times and the mean difference score (between mean non-diabetic control latency and mean diabetic latency) are graphically presented in FIGS. 13A and 13B.

TGF-β1 [4] = experiment: Effect on TGF-β1 in in vitro ischemia model; format: cell-based; settings: ischemic cell cultures, FIG. 1
Method: (§2) Effect of NAALADase Inhibition on TGF-β in In Vitro Ischemia Model
(§3) A NAALADase inhibitor, Compound C, was added to ischemia cell cultures to determine its effect on TGF-β levels during stroke. The experimental data, set forth

TGF-β2 = experiment: Effect on TGF-β2 in in vitro ischemia model; format: cell-based; settings: ischemic cell cultures, FIG. 2
Method: as §2, §3

TGF-β1 [5] = experiment: TGF-β1 levels in rats subjected to MCAO (microdialysis); format: in vivo; settings: FIG. 6
[6] = tested on: chronic constrictive injury-induced rats; experiment: Neuropathic pain progression, CCI model (sciatic nerve ligation, Hargreaves); format: in vivo; settings: 50 mg/kg i.p. daily starting 10 days post surgery, vs vehicle, significant from 11 days of treatment, FIG. 14
Method: In Vivo Assay of NAALADase Inhibitors on Neuropathic Pain Progression CCI Model
Sciatic nerve ligation, consisting of 4 ligatures tied loosely around the sciatic nerve at 1 mm intervals proximal to the nerve trifurcation, was performed on rats. […] The rats were habituated to a Hargreaves apparatus. An infrared heat source was directed onto the dorsal surface of each rat's hindpaws and the time taken for the rat to withdraw its paws was noted. The difference in scores between the latency of the response for the paw on the operated side versus the paw on the unoperated control side was determined.
Animals received Compound C (50 mg/kg i.p. daily) or vehicle, starting 10 days post surgery. […] Normal (unoperated) rats had approximately equal latencies for both paws. This effect was significant starting at 11 days of drug treatment and persisted through to the end of the study (for 21 days of daily dosing).

[7] = tested on: rats subjected to middle cerebral artery occlusion; experiment: Neuroprotective effect in MCAO rats with TGF-β neutralizing antibodies; format: in vivo; settings: FIG. 5
Description: The effect of TGF-β neutralizing antibodies on the neuroprotective effect of Compound C was also studied in rats following MCAO.
One of ordinary skill in the art can appreciate that the regulation of TGF-β's by NAALADase inhibitors may have implications not only in stroke, but also in other diseases, disorders and conditions including, without limitation, neurological diseases, psychiatric diseases, demyelinating diseases, prostate cancer, inflammation, and angiogenesis.

ischemic cell cultures = experiment: Neuroprotective effect in ischemic cell cultures with neutralizing antibodies; format: cell-based; settings: in vitro ischemia model
Method: TGF-β neutralizing antibodies were then added to the ischemic cell cultures.

`O=C(O)c1cc(CS)cc(C(=O)O)c1` [Compound 41, 5-mercaptomethyl-1,3-benzenedicarboxylic acid] was tested. Which EC50 (cortical cell cultures) did it give?
Its EC50 is 172 nM.

Which results are given for `O=C(O)CCC(CCS)C(=O)O` (centres unmarked) [Compound D, 2-(2-sulfanylethyl)pentanedioic acid]?
motor and sensory nerve conduction velocities (STZ-diabetic rats; 1 mg/kg dose): increased; sensory nerve conduction velocity (STZ-diabetic rats): increased; motor nerve conduction velocity (STZ-diabetic rats): increased; withdrawal latency (BB/W diabetic rats [1]): longer withdrawal latencies; nerve conduction velocity (BB/W diabetic rats [2]): significantly less severe nerve conduction deficits; hyperalgesic response (withdrawal latency difference score) [3]: completely reversed

How did the EC50 (cortical cell cultures) turn out when `O=C(O)c1ccc(OCCCSSCCCOc2ccc(C(=O)O)cc2C(=O)O)c(C(=O)O)c1` [Compound 19, 4-[3-[[3-(2,4-dicarboxyphenoxy)propyl]-dithio]propoxy]-1,3-benzenedicarboxylic acid] was run?
Its EC50 is 2490 nM.

Which results are given for `O=C(O)CCC(CP(=O)(O)Cc1c(F)c(F)c(F)c(F)c1F)C(=O)O` (centres unmarked) [Compound A, 2-[[(2,3,4,5,6-pentafluorobenzyl)hydroxyphosphinyl]methyl]pentanedioic acid]?
sensory nerve conduction velocity (STZ-diabetic rats): significant improvement; motor nerve conduction velocity (STZ-diabetic rats): significant improvement; withdrawal latency (BB/W diabetic rats [1]): longer withdrawal latencies; nerve conduction velocity (BB/W diabetic rats [2]): significantly less severe nerve conduction deficits; hyperalgesic response (withdrawal latency difference score) [3]: completely reversed

With `O=C(O)c1cc(OCCCS)cc(C(=O)O)c1` [Compound 36, 5-(3-mercaptopropoxy)-1,3-benzenedicarboxylic acid] as the compound, how does the EC50 (cortical cell cultures) read?
Its EC50 is 1240 nM.

For `O=C(O)c1ccc(CCS)c(C(=O)O)c1` [Compound 22, 4-(2-mercaptoethyl)-1,3-benzenedicarboxylic acid], which EC50 (cortical cell cultures) is on record?
Its EC50 is 60 nM.

How did the EC50 (cortical cell cultures) turn out when `O=C(O)c1cc(C(=O)O)cc(C(=O)NO)c1` [Compound 39, 5-[(hydroxyamino)-carbonyl]-1,3-benzenedicarboxylic acid] was run?
The EC50 was 473 nM.

How did the TGF-β1 concentrations (TGF-β1 [4]) turn out when `O=C(O)CCC(CP(=O)(O)O)C(=O)O` (centres unmarked) [Compound C, 2-(phosphonomethyl)pentanedioic acid] was run?
Its TGF-β1 concentrations is “increased concentrations”.

And the TGF-β2 concentrations (TGF-β2)?
Its TGF-β2 concentrations is “increased concentrations”.

And the “TGF-β1 levels during occlusion and reperfusion” value (TGF-β1 [5])?
The value was “significant rise”.

And the “difference scores between the two paws (withdrawal latency)” value [6]?
The value was “dramatically normalized”.

And the “neuroprotective effect in vivo with TGF-β neutralizing antibodies” value [7]?
Its value is “significantly attenuated”.

What about the “neuroprotective effect with TGF-β neutralizing antibodies added” value (ischemic cell cultures; FIG. 3) of the same compound?
Its value is “blocked”.

What about the “neuroprotective effect with FGF antibody added” value (ischemic cell cultures; FIG. 4) of the same compound?
Its value is “did not block”.
